# Molecular target: T1, Prostaglandin G/H synthase 1 (Ovis aries, UniProt P05979)
# T1 sequence (P05979 whole entry): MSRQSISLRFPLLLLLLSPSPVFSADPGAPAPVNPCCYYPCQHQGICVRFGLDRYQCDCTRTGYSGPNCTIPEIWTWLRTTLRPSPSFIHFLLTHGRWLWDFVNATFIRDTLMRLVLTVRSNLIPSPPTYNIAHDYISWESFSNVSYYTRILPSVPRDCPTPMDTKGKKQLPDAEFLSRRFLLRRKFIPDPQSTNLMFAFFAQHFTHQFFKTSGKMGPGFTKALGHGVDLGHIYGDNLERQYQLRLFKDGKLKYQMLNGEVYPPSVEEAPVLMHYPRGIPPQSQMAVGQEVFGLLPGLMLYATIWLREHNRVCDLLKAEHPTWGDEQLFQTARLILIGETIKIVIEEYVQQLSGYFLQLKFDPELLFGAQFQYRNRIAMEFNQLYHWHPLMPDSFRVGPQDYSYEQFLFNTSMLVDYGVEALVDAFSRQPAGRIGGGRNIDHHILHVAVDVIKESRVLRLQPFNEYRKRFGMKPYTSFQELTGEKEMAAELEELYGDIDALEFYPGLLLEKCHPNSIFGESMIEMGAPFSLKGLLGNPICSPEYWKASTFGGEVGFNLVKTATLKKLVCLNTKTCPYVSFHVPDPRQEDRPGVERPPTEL
# Test: Inhibition of ovine COX1 by chemiluminescent assay
row,Structure (SMILES),IC50 [µM]
1,CS(=O)(=O)c1ccc(C2SCCC(=O)N2Cc2ccccc2)cc1 (stereo not given),17.2
2,CCCCCN1C(=O)CCSC1c1ccc(S(C)(=O)=O)cc1 (stereo not given),14.9
3,CS(=O)(=O)c1ccc(C2SCCC(=O)N2CCc2ccccc2)cc1 (stereo not given),16
4,CCCCN1C(=O)CCSC1c1ccc(S(C)(=O)=O)cc1 (stereo not given),14.8
5,CCCN1C(=O)CCSC1c1ccc(S(C)(=O)=O)cc1 (stereo not given),14.1
